According to patent US20260109732A1, “LIPID AMINES” (ModernaTX, Inc., priority 2021, published 2026):
Structures can show the parent of a compound that is named as a salt.

Key:
[1] = Encapsulation of mRNA nanoparticles with lipid amines using Ribogreen assay; type: physicochemical
Summary of the method: (§1)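 DLS gave size and PDI, and Ribogreen gave encapsulation, for luciferase- or CFTR-mRNA nanoparticles (N:P 4.93). Particles came from IL1/DSPC/cholesterol/PEG-DMG-2K mixed at pH 4, mRNA-loaded, neutralized with TRIS pH 8.12, and then treated with lipid amine SA50 in pH 7.5 buffer.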

[2] = Diameter and PDI from DLS measurements of mRNA nanoparticles with lipid amines; type: physicochemical
Summary of the method: as §1

[3] = system: HeLa cells; assay: CFTR Protein Expression Assay in HeLa Cells; type: cell-based, Human; conditions: LNPs encapsulating CFTR mRNA, N=4 wells; 5 h serum-free then 24 h; immunofluorescence vs PBS control
Summary of the method: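 Readout is fold-change in per-cell CFTR immunofluorescence intensity (488 nm, confocal imaging) relative to PBS-treated cells, from 4 replicate wells. LNPs encapsulating CFTR mRNA were applied serum-free for 5 h, followed by 24 h in complete medium before PFA fixation.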

[4] = system: HeLa cells; assay: Luciferase Protein Expression Assay in HeLa Cells; type: cell-based, Human; conditions: LNPs encapsulating Luciferase mRNA, 25 ng per well, N=4 wells; 5 h serum-free then 24 h; ONE-Glo
Summary of the method: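 Luminescence output, average RLU across N=4 wells, was measured with ONE-Glo after cell lysis. Before that, HeLa cells were exposed to 25 ng/well luciferase-mRNA nanoparticles (PBS control) for 5 h serum-free, then cultured overnight (24 h) in complete MEM.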

[5] = CFTR mRNA nanoparticle with lipid amine
[6] = Luciferase mRNA nanoparticle modified with lipid amine

Structure (SMILES)	% Encapsulation (Ribogreen) [1, 5] [%]	% Encapsulation (Ribogreen) [1, 6] [%]	Diameter (nm) [2, 5] [nm]	PDI [2, 5]	Diameter (nm) [2, 6] [nm]	PDI [2, 6]	Average fold-change in CFTR signal intensity per cell compared to buffer control ± standard deviation [3] [fold-change]	Average Relative Light Units ± Standard Deviation [4] [Relative Light Units]
CC[C@H](CC[C@@H](C)[C@H]1CC[C@H]2[C@@H]3CC=C4C[C@@H](OC(=O)CCC(=O)N(CCCCCCCC(C)(C)N)CCC(C)(C)N)CC[C@]4(C)[C@H]3CC[C@]12C)C(C)C [SA165, (3S,8S,9S,10R,13R,14S,17R)-17-((2R,5R)-5-ethyl-6-methylheptan-2-yl)-10,13-dimethyl-2,3,4,7,8,9,10,11,12,13,14,15,16,17-tetradecahydro-1H-cyclopenta[a]phenanthren-3-yl 4-((3-amino-3-methylbutyl)(8-amino-8-methylnonyl)amino)-4-oxobutanoate dihydrochloride]	98.8	98.8	69.8	0.12	72	0.13	14.0 ± 0.5	33585.6 ± 7766.5
CC(C)CCC[C@@H](C)[C@H]1CC[C@H]2[C@@H]3CC=C4C[C@@H](OC(=O)CCC(=O)N(CCCC(C)(C)N)CCC(C)(C)N)CC[C@]4(C)[C@H]3CC[C@]12C [SA166, (3S,8S,9S,10R,13R,14S,17R)-10,13-dimethyl-17-((R)-6-methylheptan-2-yl)-2,3,4,7,8,9,10,11,12,13,14,15,16,17-tetradecahydro-1H-cyclopenta[a]phenanthren-3-yl 4-((3-amino-3-methylbutyl)(4-amino-4-methylpentyl)amino)-4-oxobutanoate dihydrochloride]	99.5	99.2	76.1	0.16	75	0.14	15.6 ± 1.3	33377.3 ± 8879.8
CC[C@H](CC[C@@H](C)[C@H]1CC[C@H]2[C@@H]3CC=C4C[C@@H](OC(=O)CCC(=O)N(CCCC(C)(C)N)CCC(C)(C)N)CC[C@]4(C)[C@H]3CC[C@]12C)C(C)C [SA167, (3S,8S,9S,10R,13R,14S,17R)-17-((2R,5R)-5-ethyl-6-methylheptan-2-yl)-10,13-dimethyl-2,3,4,7,8,9,10,11,12,13,14,15,16,17-tetradecahydro-1H-cyclopenta[a]phenanthren-3-yl 4-((3-amino-3-methylbutyl)(4-amino-4-methylpentyl)amino)-4-oxobutanoate dihydrochloride]	100	98.7	75.1	0.16	75	0.15	14.9 ± 1.4	38742.4 ± 6037.5
CC[C@H](CC[C@@H](C)[C@H]1CC[C@H]2[C@@H]3CC=C4C[C@@H](OC(=O)CCC(=O)N(CCC(C)N)CCC(C)N)CC[C@]4(C)[C@H]3CC[C@]12C)C(C)C (stereo partly drawn) [SA168, (3S,8S,9S,10R,13R,14S,17R)-17-((2R,5R)-5-ethyl-6-methylheptan-2-yl)-10,13-dimethyl-2,3,4,7,8,9,10,11,12,13,14,15,16,17-tetradecahydro-1H-cyclopenta[a]phenanthren-3-yl 4-(bis(3-aminobutyl)amino)-4-oxobutanoate dihydrochloride]	99.3	99.3	76.1	0.15	79	0.16	14.8 ± 0.7	35639.5 ± 6688.9
CC(C)CCC[C@@H](C)[C@H]1CC[C@H]2[C@@H]3CC=C4C[C@@H](OC(=O)CCC(=O)N(CCC(C)(C)N)CCC(C)(C)N)CC[C@]4(C)[C@H]3CC[C@]12C [SA169, (3S,8S,9S,10R,13R,14S,17R)-10,13-dimethyl-17-((R)-6-methylheptan-2-yl)-2,3,4,7,8,9,10,11,12,13,14,15,16,17-tetradecahydro-1H-cyclopenta[a]phenanthren-3-yl 4-(bis(3-amino-3-methylbutyl)amino)-4-oxobutanoate dihydrochloride]	99.2	99.4	73.0	0.14	77	0.20	19.7 ± 1.6	28034.9 ± 4050.3
CC[C@H](CC[C@@H](C)[C@H]1CC[C@H]2[C@@H]3CC=C4C[C@@H](OC(=O)CCC(=O)N(CCC(C)(C)N)CCC(C)(C)N)CC[C@]4(C)[C@H]3CC[C@]12C)C(C)C [SA170, (3S,8S,9S,10R,13R,14S,17R)-17-((2R,5R)-5-ethyl-6-methylheptan-2-yl)-10,13-dimethyl-2,3,4,7,8,9,10,11,12,13,14,15,16,17-tetradecahydro-1H-cyclopenta[a]phenanthren-3-yl 4-(bis(3-amino-3-methylbutyl)amino)-4-oxobutanoate dihydrochloride]	99.2	99.6	74.8	0.15	75	0.21	19.0 ± 1.7	23687.3 ± 3865
CC(C)CCC[C@@H](C)[C@H]1CC[C@H]2[C@@H]3CC=C4C[C@@H](SSCCC(=O)N(CCCCNCCC(C)N)CCC(C)N)CC[C@]4(C)[C@H]3CC[C@]12C (stereo partly drawn) [SA171, N-(3-aminobutyl)-N-(4-((3-aminobutyl)amino)butyl)-3-(((3S,8S,9S,10R,13R,14S,17R)-10,13-dimethyl-17-((R)-6-methylheptan-2-yl)-2,3,4,7,8,9,10,11,12,13,14,15,16,17-tetradecahydro-1H-cyclopenta[a]phenanthren-3-yl)disulfaneyl)propanamide trihydrochloride]	99.4	99.2	71.3	0.11	73	0.23	18.9 ± 1.9	22232.4 ± 9084.1
CC(C)CCC[C@@H](C)[C@H]1CC[C@H]2[C@@H]3CC=C4C[C@@H](SSCCC(=O)N(CCCCCCCC(C)N)CCC(C)N)CC[C@]4(C)[C@H]3CC[C@]12C (stereo partly drawn) [SA172, N-(3-aminobutyl)-N-(8-aminononyl)-3-(((3S,8S,9S,10R,13R,14S,17R)-10,13-dimethyl-17-((R)-6-methylheptan-2-yl)-2,3,4,7,8,9,10,11,12,13,14,15,16,17-tetradecahydro-1H-cyclopenta[a]phenanthren-3-yl)disulfaneyl)propanamide dihydrochloride]	98.3	99.4	70.3	0.13	74	0.10	17.8 ± 1.1	27528.4 ± 6654.4
CC(C)CCC[C@@H](C)[C@H]1CC[C@H]2[C@@H]3CC=C4C[C@@H](SSCCC(=O)N(CCC(C)N)CCC(C)N)CC[C@]4(C)[C@H]3CC[C@]12C (stereo partly drawn) [SA173, N,N-bis(3-aminobutyl)-3-(((3S,8S,9S,10R,13R,14S,17R)-10,13-dimethyl-17-((R)-6-methylheptan-2-yl)-2,3,4,7,8,9,10,11,12,13,14,15,16,17-tetradecahydro-1H-cyclopenta[a]phenanthren-3-yl)disulfaneyl)propanamide dihydrochloride]	100	99.5	71.8	0.16	73	0.18	13.5 ± 0.8	33596.1 ± 6033
CC(C)CCC[C@@H](C)[C@H]1CC[C@H]2[C@@H]3CC=C4C[C@@H](SSCCC(=O)N(CCC(C)(C)N)CCC(C)(C)N)CC[C@]4(C)[C@H]3CC[C@]12C [SA174, N,N-bis(3-amino-3-methylbutyl)-3-(((3S,8S,9S,10R,13R,14S,17R)-10,13-dimethyl-17-((R)-6-methylheptan-2-yl)-2,3,4,7,8,9,10,11,12,13,14,15,16,17-tetradecahydro-1H-cyclopenta[a]phenanthren-3-yl)disulfaneyl)propanamide dihydrochloride]	98.1	99.5	71.1	0.16	73	0.17	14.8 ± 1.4	31280.7 ± 5830.7
